{
  "source": "patent US6858591B2",
  "about": "“Antibiotic AA 896 analogs” (Wyeth Holdings Corporation, priority 2001, dated 2005)",
  "assay_in_all_cases": "In vitro MIC, broth dilution",
  "format_in_all_cases": "cell-based",
  "key": {"[1]": {"tested_on": "C. albicans GC 3066", "conditions": "Candida albicans, GC3066"}, "[2]": {"tested_on": "E. faecalis GC 842", "conditions": "Enterococcus faecalis, GC842", "procedure,_shortened": "(§1)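 MIC = lowest antibiotic concentration preventing visible growth after 18 h at 35 °C, ambient air. Inoculum 5×10^5 CFU/ml; drug tested 64-0.06 μg/ml in Mueller-Hinton II broth following NCCLS guidance.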"}, "[3]": {"tested_on": "CNS GC 4547", "procedure,_shortened": "as §1"}, "[4]": {"tested_on": "CNS GC 4537", "procedure,_shortened": "as §1"}, "[5]": {"tested_on": "CNS GC 4538", "procedure,_shortened": "as §1"}, "[6]": {"tested_on": "S. aureus GC 4536", "conditions": "Staphylococcus aureus, GC4536", "procedure,_shortened": "as §1"}, "[7]": {"tested_on": "E. faecalis GC 4555", "conditions": "Enterococcus faecalis, GC4555", "procedure,_shortened": "as §1"}, "[8]": {"tested_on": "S. aureus GC 2216", "conditions": "Staphylococcus aureus, GC2216", "procedure,_shortened": "as §1"}, "[9]": {"tested_on": "E. faecalis GC 2242", "conditions": "Enterococcus faecalis, GC2242", "procedure,_shortened": "as §1"}, "[10]": {"tested_on": "S. aureus GC 1131", "conditions": "Staphylococcus aureus, GC1131", "procedure,_shortened": "as §1"}, "[11]": {"tested_on": "P. aeruginosa GC 4532", "conditions": "Pseudomonas aeruginosa, GC4532"}, "[12]": {"tested_on": "P. aeruginosa GC 2214", "conditions": "Pseudomonas aeruginosa, GC2214"}, "[13]": {"tested_on": "E. coli GC 4559", "conditions": "Escherichia coli, GC4559"}, "[14]": {"tested_on": "K. pneumoniae GC 4534", "conditions": "Klebsiella pneumoniae, GC4534"}, "[15]": {"tested_on": "E. coli GC 4560", "conditions": "Escherichia coli, GC4560"}, "[16]": {"tested_on": "E. cloacae GC 3783", "conditions": "Enterobacter cloacae, GC3783"}, "[17]": {"tested_on": "E. coli GC 2203", "conditions": "Escherichia coli, GC2203"}, "[18]": {"tested_on": "E. coli GC 3226", "conditions": "Escherichia coli, GC3226"}, "[19]": {"tested_on": "M. morganii GC 4531", "conditions": "Morganella morganii, GC4531"}, "[20]": {"tested_on": "S. marcescens GC 4077", "conditions": "Serratia marcescens, GC4077"}},
  "data": [
    {"smiles": "COc1ccc(Cn2c(=O)ccn([C@@H]3OC([C@H](O)[C@H](NCCCNC(=O)[C@H](CC(=O)OCc4ccccc4)NC(=O)OCc4ccccc4)C(=O)OC(C)(C)C)[C@@H](O[Si](C)(C)C(C)(C)C)[C@H]3O[Si](C)(C)C(C)(C)C)c2=O)cc1", "note": "(stereo partly drawn) [Example 16, tert-Butyl (5S,12S)-5-[2-(benzyloxy)-2-oxoethyl]-12-[(R)-[(3R,4R,5R)-3,4-bis{[tert-butyl(dimethyl)silyl]oxy}-5-(3-(4-methoxybenzyl)-2,4-dioxo-3,4-dihydro-1(2H)-pyrimidinyl)tetrahydro-2-furanyl](hydroxy)methyl]-3,6-dioxo-1-phenyl-2-oxa-4,7,11-triazatridecan-13-oate]", "values": [
      {"measurement": "MIC", "setting": "[1]", "value": 128, "unit": "µg/mL"},
      {"measurement": "MIC", "setting": "[2]", "value": "> 128", "unit": "µg/mL"},
      {"measurement": "MIC", "setting": "[3]", "value": "> 128", "unit": "µg/mL"},
      {"measurement": "MIC", "setting": "[4]", "value": "> 128", "unit": "µg/mL"},
      {"measurement": "MIC", "setting": "[5]", "value": "> 128", "unit": "µg/mL"},
      {"measurement": "MIC", "setting": "[6]", "value": "> 128", "unit": "µg/mL"},
      {"measurement": "MIC", "setting": "[7]", "value": "> 128", "unit": "µg/mL"},
      {"measurement": "MIC", "setting": "[8]", "value": "> 128", "unit": "µg/mL"},
      {"measurement": "MIC", "setting": "[9]", "value": 128, "unit": "µg/mL"},
      {"measurement": "MIC", "setting": "[10]", "value": "> 128", "unit": "µg/mL"},
      {"measurement": "MIC", "setting": "[11]", "value": "> 128", "unit": "µg/mL"},
      {"measurement": "MIC", "setting": "[12]", "value": "> 128", "unit": "µg/mL"},
      {"measurement": "MIC", "setting": "[13]", "value": "> 128", "unit": "µg/mL"},
      {"measurement": "MIC", "setting": "[14]", "value": "> 128", "unit": "µg/mL"},
      {"measurement": "MIC", "setting": "[15]", "value": "> 128", "unit": "µg/mL"},
      {"measurement": "MIC", "setting": "[16]", "value": "> 128", "unit": "µg/mL"},
      {"measurement": "MIC", "setting": "[17]", "value": "> 128", "unit": "µg/mL"},
      {"measurement": "MIC", "setting": "[18]", "value": "> 128", "unit": "µg/mL"},
      {"measurement": "MIC", "setting": "[19]", "value": "> 128", "unit": "µg/mL"},
      {"measurement": "MIC", "setting": "[20]", "value": "> 128", "unit": "µg/mL"}
    ]},
    {"smiles": "COc1ccc(Cn2c(=O)ccn([C@@H]3OC([C@H](O)[C@H](NCCCNC(=O)[C@H](CCCCNC(=O)OCc4ccccc4)NC(=O)OCc4ccccc4)C(=O)OC(C)(C)C)[C@@H](O[Si](C)(C)C(C)(C)C)[C@H]3O[Si](C)(C)C(C)(C)C)c2=O)cc1", "note": "(stereo partly drawn) [Example 18, tert-Butyl (9S,16S)-9-{[(benzyloxy)carbonyl]amino}-16-[(R)-[(3R,4R,5R)-3,4-bis{[tert-butyl(dimethyl)silyl]oxy}-5-(3-(4-methoxybenzyl)-2,4-dioxo-3,4-dihydro-1(2H)-pyrimidinyl)tetrahydro-2-furanyl](hydroxy)methyl]-3,10-dioxo-1-phenyl-2-oxa-4,11,15-triazaheptadecan-17-oate]", "values": [
      {"measurement": "MIC", "setting": "[1]", "value": "> 128", "unit": "µg/mL"},
      {"measurement": "MIC", "setting": "[2]", "value": "> 128", "unit": "µg/mL"},
      {"measurement": "MIC", "setting": "[3]", "value": "> 128", "unit": "µg/mL"},
      {"measurement": "MIC", "setting": "[4]", "value": "> 128", "unit": "µg/mL"},
      {"measurement": "MIC", "setting": "[5]", "value": "> 128", "unit": "µg/mL"},
      {"measurement": "MIC", "setting": "[6]", "value": "> 128", "unit": "µg/mL"},
      {"measurement": "MIC", "setting": "[7]", "value": "> 128", "unit": "µg/mL"},
      {"measurement": "MIC", "setting": "[8]", "value": "> 128", "unit": "µg/mL"},
      {"measurement": "MIC", "setting": "[9]", "value": 128, "unit": "µg/mL"},
      {"measurement": "MIC", "setting": "[10]", "value": "> 128", "unit": "µg/mL"},
      {"measurement": "MIC", "setting": "[11]", "value": "> 128", "unit": "µg/mL"},
      {"measurement": "MIC", "setting": "[12]", "value": "> 128", "unit": "µg/mL"},
      {"measurement": "MIC", "setting": "[13]", "value": "> 128", "unit": "µg/mL"},
      {"measurement": "MIC", "setting": "[14]", "value": "> 128", "unit": "µg/mL"},
      {"measurement": "MIC", "setting": "[15]", "value": "> 128", "unit": "µg/mL"},
      {"measurement": "MIC", "setting": "[16]", "value": "> 128", "unit": "µg/mL"},
      {"measurement": "MIC", "setting": "[17]", "value": "> 128", "unit": "µg/mL"},
      {"measurement": "MIC", "setting": "[18]", "value": "> 128", "unit": "µg/mL"},
      {"measurement": "MIC", "setting": "[19]", "value": "> 128", "unit": "µg/mL"},
      {"measurement": "MIC", "setting": "[20]", "value": "> 128", "unit": "µg/mL"}
    ]}
  ]
}
